Measurements published in patent US9150566B2, “2-(1,2,3-triazol-2-yl)benzamide and 3-(1,2,3-triazol-2-YL)picolinamide derivatives as orexin receptor antagonists” (ACTELION PHARMACEUTICALS LTD., priority 2011, dated 2015).
Read-outs that look alike come from different tables or passages of the source.

Legend:
[1] = tested on: rat; details: rat model; cited from earlier work
[2] = tested on: amyloid precursor protein transgenic mice; details: after acute sleep restriction, APP transgenic mice; cited from earlier work
[3] = tested on: humans; details: cited from earlier work
[4] = tested on: fasted hungry rats; details: fasted hungry rats exposed to food odors; cited from earlier work
[5] = tested on: rat; details: rat fear-potentiated startle paradigm; cited from earlier work
[6] = tested on: rats; details: cited from earlier work
[7] = tested on: rats; details: rats treated with the compound; cited from earlier work
[8] = tested on: rat; details: cited from earlier work
[9] = tested on: mouse; details: mouse model of depression, administered chronically; cited from earlier work
[10] = molecular target: human orexin-2 receptor (Homo sapiens (Human), UniProt O43614); assay: In vitro intracellular calcium measurements (FLIPR), antagonistic activity on orexin-2 receptor; format: cell-based; details: read-out: IC50 OX2
How it was run: (§1)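 CHO cells expressing human orexin-1 or orexin-2 receptor were seeded overnight, preincubated with antagonist for 120 min, then stimulated with agonist in a FLIPR Tetra.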

[11] = Measurement of brain and systemic concentration after oral administration; format: in vivo; details: rat, brain, male wistar rats, oral 100 mg/kg, read-out: brain concentration [B]; for concentration at 1 h: formulated in 10% PEG400/90% MC0.5%, sampled at 1 h
Experimental: Measurement of Brain and Systemic Concentration after Oral Administration:
In order to assess brain penetration, the concentration of the compound is measured in plasma ([P]), and brain ([B]), sampled 1 h or 3 h (or at different time points) following oral administration (100 mg/kg) to male wistar rats (n=3). The compounds are formulated either in 100% PEG 400 or 10% PEG400/90% MC0.5%. Samples are collected in the same animal at the same time point (+/−5 min). Blood is sampled from the vena cava caudalis into containers with EDTA as anticoagulant and centrifuged to yield plasma. Brain is sampled after cardiac perfusion of 10 mL NaCl 0.9% and homogenized into one volume of cold phosphate buffer (pH 7.4). All samples are extracted with MeOH and analyzed by LC-MS/MS. Concentrations are determined with the help of calibration curves. Inter-individual variations between the three rats were limited. Particular compounds of the present invention tested as described above gave brain concentrations ([B]) as shown in Table 16 below; wherein the compounds of Examples 11-37 and 94 were formulated in 100% PEG400 and sampled at 3 h. All other examples below were formulated in 10% PEG400/90% MC0.5% and sampled at 1 h.

[12] = molecular target: CYP3A4 (Homo sapiens (Human), UniProt P08684); assay: CYP3A4 inhibition assay (human liver microsomes, testosterone 6β-hydroxylation); details: read-out: CYP3A4 IC50, 40 μM testosterone
Experimental: The CYP3A4 inhibition assay was performed using human liver microsomes and testosterone 6β-hydroxylation as a P450 isoform-specific marker. In a total volume of 150 μL, ^14C-testosterone at a final concentration of 40 μM in a 100 mM phosphate buffer (pH 7.4) was incubated in a 96-well plate with 0.3 mg/mL of human liver microsomes in an Eppendorf thermomixer at 37° C. and 400 rpm. […] The reaction was initiated by addition of 15 μL of the NADPH-regenerating system containing the glucose-6-phosphate dehydrogenase and terminated after 7 min with a 75 μL-aliquot of methanol. After centrifugation at 465 g and 4° C. for 20 min, a 50 μL-aliquot of the supernatant was submitted to HPLC according to the method described below. The total concentration of DMSO in the assay including controls without inhibitor was 1%.
Nicardipine was run in parallel as a reference inhibitor of CYP3A4 activity at final concentrations of 0, 0.1, 0.5, 1.0, 5.0, 10, 25, and 50 μM. Stock solutions thereof were prepared in DMSO.
The chromatographic separation of testosterone and 6β-hydroxytestosterone was achieved on a Phenomenex Luna C18(2) column (5 μm, 2.0×10 mm) at RT with a flow rate of 0.6 mL/min. Mobile phases consisted of 1% aqueous formic acid (phase A) and methanol (phase B) using a gradient method with 0.9 min total run time.
The quantification of 6β-hydroxytestosterone was carried out using a quadrupole mass spectrometer equipped with an ionspray interface operating in positive ion mode. The parameters of the mass detector were set as follows: capillary voltage 5 kV, auxiliary gas 40 psi, collision gas 3 mTorr, and transfer capillary temperature 420° C.

[13] = molecular target: human orexin-1 receptor (Homo sapiens (Human), UniProt O43613); assay: In vitro intracellular calcium measurements (FLIPR), antagonistic activity on orexin-1 receptor; format: cell-based; details: read-out: IC50 OX1
How it was run: as §1

[14] = tested on: rodents; details: cited from earlier work
[15] = CHO cells expressing human orexin-2 receptor, FLIPR, 3 nM orexin-A agonist, 120 min antagonist incubation, geometric mean if determined several times
[16] = CHO cells expressing human orexin-1 receptor, FLIPR, 3 nM orexin-A agonist, 120 min antagonist incubation, geometric mean if determined several times

human orexin-1 receptor, sequence (O43613 whole entry): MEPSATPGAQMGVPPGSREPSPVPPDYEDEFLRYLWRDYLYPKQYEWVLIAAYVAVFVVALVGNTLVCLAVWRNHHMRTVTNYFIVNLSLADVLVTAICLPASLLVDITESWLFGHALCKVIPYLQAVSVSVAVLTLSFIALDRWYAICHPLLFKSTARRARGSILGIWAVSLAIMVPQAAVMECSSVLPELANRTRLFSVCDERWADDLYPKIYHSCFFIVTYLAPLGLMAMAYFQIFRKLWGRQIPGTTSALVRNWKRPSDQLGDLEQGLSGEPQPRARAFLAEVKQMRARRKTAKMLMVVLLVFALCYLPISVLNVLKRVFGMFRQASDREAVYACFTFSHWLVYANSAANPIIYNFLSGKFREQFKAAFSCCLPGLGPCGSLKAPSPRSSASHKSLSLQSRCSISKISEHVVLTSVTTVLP
human orexin-2 receptor, sequence (O43614 whole entry): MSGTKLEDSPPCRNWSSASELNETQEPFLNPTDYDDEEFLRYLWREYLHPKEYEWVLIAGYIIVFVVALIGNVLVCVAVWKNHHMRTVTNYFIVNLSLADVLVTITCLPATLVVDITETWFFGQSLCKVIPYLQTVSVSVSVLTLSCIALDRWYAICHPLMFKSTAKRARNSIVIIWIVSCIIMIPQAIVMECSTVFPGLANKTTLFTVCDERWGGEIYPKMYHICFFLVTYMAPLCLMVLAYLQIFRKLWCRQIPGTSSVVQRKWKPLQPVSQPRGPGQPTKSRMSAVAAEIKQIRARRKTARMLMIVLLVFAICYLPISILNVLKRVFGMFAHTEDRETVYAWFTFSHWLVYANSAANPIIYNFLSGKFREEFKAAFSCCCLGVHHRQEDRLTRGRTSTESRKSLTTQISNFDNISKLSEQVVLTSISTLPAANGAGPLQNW
CYP3A4, sequence (P08684 whole entry): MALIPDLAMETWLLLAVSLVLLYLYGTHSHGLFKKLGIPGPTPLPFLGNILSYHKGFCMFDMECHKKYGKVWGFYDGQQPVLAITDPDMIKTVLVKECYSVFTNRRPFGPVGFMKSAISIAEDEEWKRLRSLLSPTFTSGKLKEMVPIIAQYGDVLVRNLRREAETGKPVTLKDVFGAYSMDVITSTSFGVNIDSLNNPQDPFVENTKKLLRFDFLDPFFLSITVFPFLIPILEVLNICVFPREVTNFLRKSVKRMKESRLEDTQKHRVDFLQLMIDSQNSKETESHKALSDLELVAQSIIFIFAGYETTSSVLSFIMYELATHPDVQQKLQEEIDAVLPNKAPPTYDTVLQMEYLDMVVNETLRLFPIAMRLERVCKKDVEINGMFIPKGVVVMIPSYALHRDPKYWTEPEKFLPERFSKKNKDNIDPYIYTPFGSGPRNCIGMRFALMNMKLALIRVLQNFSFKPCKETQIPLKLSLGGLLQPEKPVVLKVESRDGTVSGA

SMILES | IC50 [10, 15] | IC50 [12] | IC50 [13, 16] | concentration at 1 h [11] | other results
CNC(=O)[C@@H](c1ccccc1)N1CCc2cc(OC)c(OC)cc2[C@@H]1CCc1ccc(C(F)(F)F)cc1 [(2R)-2-{(1S)-6,7-dimethoxy-1-[2-(4-trifluoromethyl-phenyl)-ethyl]-3,4-dihydro-1H-isoquinolin-2-yl}-N-methyl-2-phenyl-acetamide] |  |  |  |  | pharmacological activity, nicotine self-administration [1]: displayed pharmacological activity; brain levels of amyloid-beta and plaque deposition [2]: decreased brain levels of amyloid-beta (Aβ) as well as AO plaque deposition; clinical efficacy, primary insomnia [3]: showed clinical efficacy; natural activation induced by orexin A [4]: attenuate the natural activation induced by orexin A; activity in animal model of conditioned fear [5]: active; cardiovascular responses to conditioned fear and novelty exposure [6]: attenuated cardiovascular responses to conditioned fear and novelty exposure; learning and memory [7]: intact declarative and non-declarative learning and memory; alertness (active wake and locomotion) [8]: decrease alertness; time spent in REM and NREM sleep [8]: dose-dependently increase the time spent in both REM and NREM sleep; antidepressant-like activity [9]: induce antidepressant-like activity
Cc1ccc(C(=O)N2CCOC[C@H]2Cc2cc(-n3nccn3)ccc2Cl)c(-n2nccn2)c1 [Example 120, [(R)-3-(2-Chloro-5-[1,2,3]triazol-2-yl-benzyl)-morpholin-4-yl]-(4-methyl-2-[1,2,3]triazol-2-yl-phenyl)-methanone] |  | 19000 nM |  | 5130 ng/g | IC50 [10]: 531 nM; IC50 [13]: 3 nM
Cn1c(SCC(=O)N2CCC[C@H]2C(=O)Nc2ccccc2-c2ccccc2)nc2ccccc21 [N-biphenyl-2-yl-1-{[(1-methyl-1H-benzimidazol-2-yl)sulfanyl]acetyl}-L-prolinamide] |  |  |  |  | behavioral and molecular changes induced by repeated amphetamine administration [14]: reduced behavioral (locomotor sensitization) and molecular (transcriptional responses) changes induced by repeated amphetamine administration; nicotine-reinstatement for a conditioned reinforcer [14]: inhibited nicotine-reinstatement for a conditioned reinforcer

Now from value to compound, other results behind:

IC50 [10, 15] | IC50 [12] | IC50 [13, 16] | concentration at 1 h [11] | SMILES | other results
3580 nM | 30000 nM | 6 nM |  | Cc1ccc(C(=O)N2CCOC[C@H]2Cc2cc(-n3nccn3)ccc2F)c(-n2nccn2)c1C [Example 94, (3,4-Dimethyl-2-[1,2,3]triazol-2-yl-phenyl)-[(R)-3-(2-fluoro-5-[1,2,3]triazol-2-yl-benzyl)-morpholin-4-yl]-methanone] | concentration at 3 h ([11]; formulated in 100% PEG400, sampled at 3 h): 654 ng/g
289 nM | 13000 nM | 6 nM | 529 ng/g | C[C@@H]1CN(C(=O)c2ccccc2-n2nccn2)[C@H](Cc2cccc(-n3nccn3)c2)CO1 [Example 100, [(2R,5R)-2-Methyl-5-(3-[1,2,3]triazol-2-yl-benzyl)-morpholin-4-yl]-(2-[1,2,3]triazol-2-yl-phenyl)-methanone] | 
899 nM | 21000 nM | 21 nM | 5930 ng/g | C[C@@H]1CN(C(=O)c2ccccc2-n2nccn2)[C@H](Cc2cc(-n3nccn3)ccc2F)CO1 [Example 116, [(2R,5R)-5-(2-Fluoro-5-[1,2,3]triazol-2-yl-benzyl)-2-methyl-morpholin-4-yl]-(2-[1,2,3]triazol-2-yl-phenyl)-methanone] | 
191 nM | 20000 nM | 3 nM | 5830 ng/g | O=C(c1ccc(Cl)cc1-n1nccn1)N1CCOC[C@H]1Cc1cc(-n2nccn2)ccc1F [Example 130, (4-Chloro-2-[1,2,3]triazol-2-yl-phenyl)-[(R)-3-(2-fluoro-5-[1,2,3]triazol-2-yl-benzyl)-morpholin-4-yl]-methanone] | 
